{"source": "BindingDB's records for doi:10.1016/j.bmcl.2017.07.009", "about": "(Sichuan University and Collaborative Innovation Center, 2017)", "biological_target": "Tyrosine-protein kinase SYK (Homo sapiens) (UniProt P43405)", "test": "Inhibition of recombinant human full length N-terminal His6-tagged SYK expressed in baculovirus Sf21 insect cells preincubated for 5 mins followed by substrate addition after 30 to 60 mins in presence of ATP by fluorescence assay", "data": [{"smiles": "C=CS(=O)(=O)N1CCC[C@@H]1Cn1cc(-c2ccc3c(c2)OCO3)c2c(N)ncnc21", "values": [{"measurement": "IC50", "value": "> 10", "unit": "µM"}]}]}
